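Method: 48-hour compound exposure of cells in 96-well plates, five concentrations, linear interpolation of endpoints. At the GI50, growth is halved.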 Calls of active or inactive are those of the source. Rule as the data show it: active = GI50 up to about 1.1 µM and inactive = higher.
Key:
Assay in all cases: inhibition of tumour cell growth, NCI panel, 48 h
[1] = system: OVCAR-3
[2] = system: ACHN
[3] = system: HOP-62
[4] = system: OVCAR-5
[5] = system: Hs-578T
[6] = system: A498
[7] = system: BT-549
[8] = system: A549
[9] = system: NCI-H522
[10] = system: UO-31
[11] = system: SF-539
[12] = system: MDA-N
[13] = system: SW-620
[14] = system: RPMI-8226
[15] = system: HCT-15
[16] = system: LOX IMVI
[17] = system: COLO 205
[18] = system: MDA-MB-231
[19] = system: U-251
[20] = system: IGROV-1

Structure (SMILES) | GI50 [1] | GI50 [2] | GI50 [3] | GI50 [4] | GI50 [5] | GI50 [6] | GI50 [7] | GI50 [8] | GI50 [9] | GI50 [10] | GI50 [11] | GI50 [12] | GI50 [13] | GI50 [14] | GI50 [15] | GI50 [16] | GI50 [17] | GI50 [18] | GI50 [19] | GI50 [20]
CCCC(=O)Nc1cn(COC)c(C(=O)N2C[C@@H]3C[C@]34C2=CC(=O)c2[nH]cc(C)c24)n1 | 10.3 µM (inactive) | 3.26 µM (inactive) | 13.6 µM (inactive) | 28.7 µM (inactive) | 15.1 µM (inactive) | 9.48 µM (inactive) | 7.74 µM (inactive) | 10.8 µM (inactive) | 3.28 µM (inactive) | 12.3 µM (inactive) | 11.7 µM (inactive) | 9.29 µM (inactive) | 5.58 µM (inactive) | 10.9 µM (inactive) | 13.7 µM | 6.31 µM (inactive) | 7.91 µM (inactive) | 8.47 µM (inactive) | 12.9 µM (inactive) | 9.25 µM (inactive)
COc1ccc(N2C(=O)C3c4[nH]c5ccc(C)cc5c4C4CCC(C(C)C)CC4C3C2=O)cc1 (centres undefined) | > 100 µM (inactive) | > 100 µM (inactive) | 45.4 µM (inactive) | > 100 µM (inactive) | 57.8 µM (inactive) | > 100 µM (inactive) | > 100 µM (inactive) | > 100 µM (inactive) | > 100 µM (inactive) | > 100 µM (inactive) | – | > 100 µM (inactive) | > 100 µM (inactive) | > 100 µM (inactive) | > 100 µM | > 100 µM (inactive) | > 100 µM (inactive) | > 100 µM (inactive) | 47.6 µM (inactive) | > 100 µM (inactive)
CC(C)(N)CO[C@H]1C[C@H]2CC[C@@]1(C)C2(C)C | 49.8 µM (inactive) | 34.9 µM (inactive) | 20 µM (inactive) | 18.5 µM (inactive) | 27.5 µM (inactive) | 27.2 µM (inactive) | 23.1 µM (inactive) | 38.5 µM (inactive) | 18.7 µM (inactive) | 16.5 µM (inactive) | 22.4 µM (inactive) | 15.5 µM (inactive) | 23.7 µM (inactive) | 15.7 µM (inactive) | 19.8 µM | 17.2 µM (inactive) | 16.1 µM (inactive) | 17.8 µM (inactive) | 18.1 µM (inactive) | 39.2 µM (inactive)
CC(C)(C)N/N=C(\C(=O)Nc1ccc([N+](=O)[O-])cc1[N+](=O)[O-])c1nc2ccc([N+](=O)[O-])cc2nc1O | > 100 µM (inactive) | > 100 µM (inactive) | – | > 100 µM (inactive) | 82.6 µM (inactive) | > 100 µM (inactive) | > 100 µM (inactive) | > 100 µM (inactive) | 66.7 µM (inactive) | 82.2 µM (inactive) | > 100 µM (inactive) | > 100 µM (inactive) | > 100 µM (inactive) | 13.2 µM (inactive) | 43.4 µM | 58.7 µM (inactive) | 24.5 µM (inactive) | > 100 µM (inactive) | > 100 µM (inactive) | > 100 µM (inactive)
O=C(O)c1ccccc1CC1Cc2cc3c(cc2C1)CCC3 | > 100 µM (inactive) | > 100 µM (inactive) | > 100 µM (inactive) | > 100 µM (inactive) | > 100 µM (inactive) | > 100 µM (inactive) | > 100 µM (inactive) | 95.1 µM (inactive) | > 100 µM (inactive) | > 100 µM (inactive) | > 100 µM (inactive) | > 100 µM (inactive) | > 100 µM (inactive) | 88.3 µM (inactive) | 99.3 µM | > 100 µM (inactive) | > 100 µM (inactive) | > 100 µM (inactive) | > 100 µM (inactive) | > 100 µM (inactive)
CCOC(=O)C#Cc1cccc(C#CC(=O)OCC)c1 | 6.07 µM (inactive) | 6.03 µM (inactive) | 5.69 µM (inactive) | 1.14 µM (inactive) | 9.55 µM (inactive) | 12.5 µM (inactive) | 2.28 µM (inactive) | 6.53 µM (inactive) | 15.8 µM (inactive) | 4.51 µM (inactive) | 5.14 µM (inactive) | 2.32 µM (inactive) | 5.25 µM (inactive) | 4.71 µM (inactive) | 3.31 µM | 2.07 µM (inactive) | 5.32 µM (inactive) | 5.79 µM (inactive) | 4.71 µM (inactive) | 18.2 µM (inactive)
O=C(O)c1c(-c2ccccc2)c(=O)[nH]c2ccccc12 | > 100 µM (inactive) | > 100 µM (inactive) | > 100 µM (inactive) | > 100 µM (inactive) | > 100 µM (inactive) | > 100 µM (inactive) | > 100 µM (inactive) | > 100 µM (inactive) | > 100 µM (inactive) | > 100 µM (inactive) | – | > 100 µM (inactive) | > 100 µM (inactive) | > 100 µM (inactive) | > 100 µM | > 100 µM (inactive) | > 100 µM (inactive) | > 100 µM (inactive) | > 100 µM (inactive) | > 100 µM (inactive)
COC1=CC(=O)C2=C(C1=O)[C@H]1CC[C@]3(C)C(=O)CC[C@H]3[C@@H]1CC2 | 23.3 µM (inactive) | 27.3 µM (inactive) | 59.8 µM (inactive) | 20.3 µM (inactive) | 28.5 µM (inactive) | > 100 µM (inactive) | 19.4 µM (inactive) | 45.3 µM (inactive) | 24.2 µM (inactive) | 22.2 µM (inactive) | 19.6 µM (inactive) | 25.2 µM (inactive) | 26.4 µM (inactive) | 26.1 µM (inactive) | 27.2 µM | 18.6 µM (inactive) | 39.8 µM (inactive) | 4 µM (inactive) | 32.2 µM (inactive) | 21.4 µM (inactive)
CO[C@H]1O[C@@H]2CO[C@@H](c3ccccc3)O[C@H]2[C@@H]2CC=CCC[C@]12O | 69.7 µM (inactive) | 76.4 µM (inactive) | > 100 µM (inactive) | > 100 µM (inactive) | 0.052 µM (active) | 32.1 µM (inactive) | 24.6 µM (inactive) | 59.8 µM (inactive) | 16.5 µM (inactive) | 48.2 µM (inactive) | – | 50.9 µM (inactive) | 54.1 µM (inactive) | 23.7 µM (inactive) | 39.6 µM | 74.3 µM (inactive) | 48.5 µM (inactive) | > 100 µM (inactive) | 60.3 µM (inactive) | 59.6 µM (inactive)
Cc1ccc2c(=O)c(-c3n[nH]c(=S)s3)c[nH]c2n1 | > 100 µM (inactive) | > 100 µM (inactive) | > 100 µM (inactive) | > 100 µM (inactive) | > 100 µM (inactive) | > 100 µM (inactive) | > 100 µM (inactive) | > 100 µM (inactive) | 82.8 µM (inactive) | > 100 µM (inactive) | – | > 100 µM (inactive) | > 100 µM (inactive) | > 100 µM (inactive) | > 100 µM | > 100 µM (inactive) | > 100 µM (inactive) | > 100 µM (inactive) | > 100 µM (inactive) | > 100 µM (inactive)
NC(=O)NC(CC(=O)O)C(=O)O (centres undefined) | > 100 µM (inactive) | > 100 µM (inactive) | > 100 µM (inactive) | > 100 µM (inactive) | > 100 µM (inactive) | > 100 µM (inactive) | > 100 µM (inactive) | > 100 µM (inactive) | > 100 µM (inactive) | > 100 µM (inactive) | – | > 100 µM (inactive) | > 100 µM (inactive) | > 100 µM (inactive) | > 100 µM | > 100 µM (inactive) | – | > 100 µM (inactive) | > 100 µM (inactive) | > 100 µM (inactive)
Cc1c(-c2ccccc2)oc(=O)c2ccccc12 | 20.2 µM (inactive) | 26.2 µM (inactive) | 22.1 µM (inactive) | 30.8 µM (inactive) | 17.1 µM (inactive) | > 10 µM (inactive) | 13.7 µM (inactive) | 25 µM (inactive) | 13.8 µM (inactive) | 19 µM (inactive) | 18.3 µM (inactive) | 20 µM (inactive) | – | 16.7 µM (inactive) | 19.8 µM | 19.1 µM (inactive) | 16 µM (inactive) | 16.7 µM (inactive) | 17.9 µM (inactive) | 20.2 µM (inactive)
O=[N+]([O-])c1ccc2c3c1[C@H]1O[C@H]1c1cccc(c1-3)[C@@H]1O[C@H]21 | 2.63 µM (inactive) | 2.22 µM (inactive) | 2.9 µM (inactive) | 2.37 µM (inactive) | 3.15 µM (inactive) | 2.31 µM (inactive) | 1.99 µM (inactive) | 3.2 µM (inactive) | 1.67 µM (inactive) | 2 µM (inactive) | 2.3 µM (inactive) | 2.17 µM (inactive) | 0.951 µM (active) | 1.23 µM (inactive) | 1.71 µM | 0.305 µM (active) | 2.05 µM (inactive) | 2.01 µM (inactive) | 1.8 µM (inactive) | –
COC1CCC(OS(C)(=O)=O)C(C)O1 (centres undefined) | > 10 µM (inactive) | > 10 µM (inactive) | > 10 µM (inactive) | > 10 µM (inactive) | > 10 µM (inactive) | > 10 µM (inactive) | > 10 µM (inactive) | > 10 µM (inactive) | > 10 µM (inactive) | – | > 10 µM (inactive) | > 10 µM (inactive) | > 10 µM (inactive) | > 10 µM (inactive) | > 10 µM | > 10 µM (inactive) | > 10 µM (inactive) | > 10 µM (inactive) | > 10 µM (inactive) | > 10 µM (inactive)
O=C1CCSc2nc(-c3ccc4c(c3)OCO4)nn21 | > 10 µM (inactive) | > 10 µM (inactive) | > 10 µM (inactive) | > 10 µM (inactive) | > 10 µM (inactive) | > 10 µM (inactive) | > 10 µM (inactive) | > 10 µM (inactive) | > 10 µM (inactive) | – | > 10 µM (inactive) | > 10 µM (inactive) | > 10 µM (inactive) | > 10 µM (inactive) | > 10 µM | > 10 µM (inactive) | > 10 µM (inactive) | > 10 µM (inactive) | > 10 µM (inactive) | > 10 µM (inactive)
